Measurements: paper PMC11564776, “Enzyme stabilisation due to incorporation of a fluorinated non-natural amino acid at the protein surface” (Scientific Reports, 2024)
Where two headings read alike, the source gives them in different places.

Molecular target: T1, WT transketolase (WT TK) (Escherichia coli, UniProt P27302)
T1 construct: gene tktA; full length, N-terminal His6 tag (plasmid pQR791), Ni-NTA purified, tag cleavage not mentioned; homodimer of 73-74 kDa monomers; WT expressed in E. coli XL10-Gold, variants in E. coli C321.dA.exp
Test: HPLC of erythrulose formation, initial velocities, Michaelis-Menten fit
Assay type: biochemical
Details: 50 mM HPA, 1.36 mM ThDP, 5.1 mM MgCl2, 33 mM Tris.HCl, pH 7.0, assay 21 °C, pre-incubated 15 min at 21 °C, standard error in parentheses, read-out: Km (GA)
Source text: HPLC of erythrulose formation, initial velocities, Michaelis-Menten fit on WT transketolase (WT TK)

T1 sequence (P27302 whole entry): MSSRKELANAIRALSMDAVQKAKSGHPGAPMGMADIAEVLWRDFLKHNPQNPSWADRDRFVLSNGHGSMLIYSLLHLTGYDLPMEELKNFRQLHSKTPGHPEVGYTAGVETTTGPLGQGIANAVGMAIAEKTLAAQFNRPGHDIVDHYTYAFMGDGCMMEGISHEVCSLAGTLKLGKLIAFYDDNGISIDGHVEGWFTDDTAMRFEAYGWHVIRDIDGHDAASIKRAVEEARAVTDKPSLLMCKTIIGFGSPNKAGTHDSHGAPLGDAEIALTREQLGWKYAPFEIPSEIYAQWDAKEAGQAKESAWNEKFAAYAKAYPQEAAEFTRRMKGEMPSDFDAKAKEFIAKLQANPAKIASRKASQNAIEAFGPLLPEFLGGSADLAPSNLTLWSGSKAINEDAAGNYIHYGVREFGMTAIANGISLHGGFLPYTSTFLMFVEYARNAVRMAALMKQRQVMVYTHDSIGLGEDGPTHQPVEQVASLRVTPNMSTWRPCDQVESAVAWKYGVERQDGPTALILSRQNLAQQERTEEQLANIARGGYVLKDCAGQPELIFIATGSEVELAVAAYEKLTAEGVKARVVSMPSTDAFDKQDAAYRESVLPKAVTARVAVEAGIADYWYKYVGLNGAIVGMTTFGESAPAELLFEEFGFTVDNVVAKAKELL

Km (non-natural amino acid at 316, 84% incorporation with 9% K316F): 14 mM | Km (non-natural amino acid at 316, almost 100% incorporation): 18 mM
SMILES: O=CCO [GA]
